This note sets out measurements from article PMC9116130 (Biochemical pharmacology, 2020).

What is called IC50 is the concentration at which inhibition is half-maximal. The low end stands for greater potency in that assay, the high end for weaker potency in that assay. What is called inhibition is the change of the read-out against control, counted positive when it falls.

Where a SMILES comes first, the peptide text is derived from it. Bridges are numbered along the chain shown (N, C = ends). Some results are limits rather than exact numbers.

One experiment deals with rNaV1.2 (Rattus norvegicus, UniProt P04775). Description: Two-electrode voltage-clamp on Xenopus laevis oocytes expressing NaV1.2. The conditions noted are these: for inhibition at 100 µM: read-out: Maximum % inhibition NaV1.2, peptide at 100 μM. For orientation: In two-electrode clamp one electrode senses voltage and the other passes current.
A further experiment deals with rNaV1.4 (Rattus norvegicus, UniProt P15390). Description: Two-electrode voltage-clamp on Xenopus laevis oocytes expressing NaV1.4. Conditions: for inhibition at 100 µM: read-out: Maximum % inhibition NaV1.4, peptide at 100 μM; for Maximum % inhibition NaV1.4: peptide at 100 μM, 100 µM.
The next experiment concerns the target hNaV1.5 (Homo sapiens, UniProt Q14524). Description: Two-electrode voltage-clamp on Xenopus laevis oocytes expressing NaV1.5. Conditions: for inhibition at 100 µM: read-out: Maximum % inhibition NaV1.5.
For another experiment, the target named is mNaV1.6 (Mus musculus, UniProt Q9WTU3). Kind of experiment: Two-electrode voltage-clamp on Xenopus laevis oocytes expressing NaV1.6. Conditions: for inhibition at 100 µM: read-out: Maximum % inhibition NaV1.6, peptide at 100 μM.
For a further experiment, the target named is rNaV1.8 (Rattus norvegicus, UniProt Q62968). Description: Two-electrode voltage-clamp on Xenopus laevis oocytes expressing NaV1.8. Conditions: for inhibition at 100 µM: read-out: Maximum % inhibition NaV1.8.

Chain of rNaV1.2 (P04775 whole entry): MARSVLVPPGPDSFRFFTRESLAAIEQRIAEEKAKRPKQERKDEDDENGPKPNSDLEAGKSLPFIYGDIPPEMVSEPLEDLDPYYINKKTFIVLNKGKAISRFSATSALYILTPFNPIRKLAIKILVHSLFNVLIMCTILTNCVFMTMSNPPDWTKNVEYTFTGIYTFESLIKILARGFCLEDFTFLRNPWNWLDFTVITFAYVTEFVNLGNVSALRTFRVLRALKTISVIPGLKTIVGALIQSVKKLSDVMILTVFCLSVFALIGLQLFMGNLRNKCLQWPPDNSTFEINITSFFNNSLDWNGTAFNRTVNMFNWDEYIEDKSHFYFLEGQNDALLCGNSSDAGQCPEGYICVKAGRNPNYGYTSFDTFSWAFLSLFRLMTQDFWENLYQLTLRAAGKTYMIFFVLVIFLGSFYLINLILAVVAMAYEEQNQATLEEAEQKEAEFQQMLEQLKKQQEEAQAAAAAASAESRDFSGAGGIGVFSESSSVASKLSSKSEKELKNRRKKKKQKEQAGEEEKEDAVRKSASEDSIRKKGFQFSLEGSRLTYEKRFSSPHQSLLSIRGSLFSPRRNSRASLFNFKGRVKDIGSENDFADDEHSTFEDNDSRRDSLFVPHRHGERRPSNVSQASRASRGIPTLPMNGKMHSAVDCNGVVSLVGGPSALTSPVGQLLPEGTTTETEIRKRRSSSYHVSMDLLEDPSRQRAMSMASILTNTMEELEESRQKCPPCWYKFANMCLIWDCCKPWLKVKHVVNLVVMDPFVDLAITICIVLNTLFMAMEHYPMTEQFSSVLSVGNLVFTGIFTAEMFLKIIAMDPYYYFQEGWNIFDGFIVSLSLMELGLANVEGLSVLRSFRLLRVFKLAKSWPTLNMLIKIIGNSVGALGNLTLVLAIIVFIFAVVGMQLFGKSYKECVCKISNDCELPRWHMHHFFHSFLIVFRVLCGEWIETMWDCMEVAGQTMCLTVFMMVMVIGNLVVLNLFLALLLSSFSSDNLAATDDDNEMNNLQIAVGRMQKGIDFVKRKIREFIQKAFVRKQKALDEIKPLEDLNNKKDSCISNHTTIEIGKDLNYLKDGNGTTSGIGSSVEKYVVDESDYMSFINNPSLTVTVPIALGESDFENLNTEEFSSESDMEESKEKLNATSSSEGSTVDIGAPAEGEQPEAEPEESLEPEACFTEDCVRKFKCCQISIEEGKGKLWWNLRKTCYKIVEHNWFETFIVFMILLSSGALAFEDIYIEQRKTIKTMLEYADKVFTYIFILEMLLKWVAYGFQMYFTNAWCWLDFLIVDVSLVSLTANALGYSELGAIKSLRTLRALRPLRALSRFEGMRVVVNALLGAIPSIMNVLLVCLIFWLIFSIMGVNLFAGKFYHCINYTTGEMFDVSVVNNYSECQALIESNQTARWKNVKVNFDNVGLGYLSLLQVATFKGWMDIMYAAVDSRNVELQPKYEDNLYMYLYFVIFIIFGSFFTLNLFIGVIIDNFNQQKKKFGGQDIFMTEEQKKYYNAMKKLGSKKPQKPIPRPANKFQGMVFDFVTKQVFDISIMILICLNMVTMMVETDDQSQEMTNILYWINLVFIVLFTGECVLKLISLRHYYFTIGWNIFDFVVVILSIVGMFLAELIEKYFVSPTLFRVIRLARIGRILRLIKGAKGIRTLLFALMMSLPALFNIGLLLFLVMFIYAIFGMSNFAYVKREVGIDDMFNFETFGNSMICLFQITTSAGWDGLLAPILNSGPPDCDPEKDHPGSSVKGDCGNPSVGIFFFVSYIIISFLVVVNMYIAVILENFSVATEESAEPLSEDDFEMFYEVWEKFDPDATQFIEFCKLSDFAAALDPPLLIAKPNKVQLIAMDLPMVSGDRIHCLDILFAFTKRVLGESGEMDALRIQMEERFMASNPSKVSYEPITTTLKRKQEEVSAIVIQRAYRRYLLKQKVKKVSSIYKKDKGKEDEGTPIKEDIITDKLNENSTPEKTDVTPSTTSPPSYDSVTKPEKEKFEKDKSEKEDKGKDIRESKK
Chain of rNaV1.2 (Q00954 19-218, further chain): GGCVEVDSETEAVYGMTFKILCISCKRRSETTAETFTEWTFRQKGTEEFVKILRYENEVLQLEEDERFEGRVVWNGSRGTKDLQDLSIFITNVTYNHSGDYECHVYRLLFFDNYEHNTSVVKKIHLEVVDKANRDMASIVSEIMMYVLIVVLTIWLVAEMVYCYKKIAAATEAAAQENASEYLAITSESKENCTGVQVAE
Chain of rNaV1.4 (P15390 whole entry): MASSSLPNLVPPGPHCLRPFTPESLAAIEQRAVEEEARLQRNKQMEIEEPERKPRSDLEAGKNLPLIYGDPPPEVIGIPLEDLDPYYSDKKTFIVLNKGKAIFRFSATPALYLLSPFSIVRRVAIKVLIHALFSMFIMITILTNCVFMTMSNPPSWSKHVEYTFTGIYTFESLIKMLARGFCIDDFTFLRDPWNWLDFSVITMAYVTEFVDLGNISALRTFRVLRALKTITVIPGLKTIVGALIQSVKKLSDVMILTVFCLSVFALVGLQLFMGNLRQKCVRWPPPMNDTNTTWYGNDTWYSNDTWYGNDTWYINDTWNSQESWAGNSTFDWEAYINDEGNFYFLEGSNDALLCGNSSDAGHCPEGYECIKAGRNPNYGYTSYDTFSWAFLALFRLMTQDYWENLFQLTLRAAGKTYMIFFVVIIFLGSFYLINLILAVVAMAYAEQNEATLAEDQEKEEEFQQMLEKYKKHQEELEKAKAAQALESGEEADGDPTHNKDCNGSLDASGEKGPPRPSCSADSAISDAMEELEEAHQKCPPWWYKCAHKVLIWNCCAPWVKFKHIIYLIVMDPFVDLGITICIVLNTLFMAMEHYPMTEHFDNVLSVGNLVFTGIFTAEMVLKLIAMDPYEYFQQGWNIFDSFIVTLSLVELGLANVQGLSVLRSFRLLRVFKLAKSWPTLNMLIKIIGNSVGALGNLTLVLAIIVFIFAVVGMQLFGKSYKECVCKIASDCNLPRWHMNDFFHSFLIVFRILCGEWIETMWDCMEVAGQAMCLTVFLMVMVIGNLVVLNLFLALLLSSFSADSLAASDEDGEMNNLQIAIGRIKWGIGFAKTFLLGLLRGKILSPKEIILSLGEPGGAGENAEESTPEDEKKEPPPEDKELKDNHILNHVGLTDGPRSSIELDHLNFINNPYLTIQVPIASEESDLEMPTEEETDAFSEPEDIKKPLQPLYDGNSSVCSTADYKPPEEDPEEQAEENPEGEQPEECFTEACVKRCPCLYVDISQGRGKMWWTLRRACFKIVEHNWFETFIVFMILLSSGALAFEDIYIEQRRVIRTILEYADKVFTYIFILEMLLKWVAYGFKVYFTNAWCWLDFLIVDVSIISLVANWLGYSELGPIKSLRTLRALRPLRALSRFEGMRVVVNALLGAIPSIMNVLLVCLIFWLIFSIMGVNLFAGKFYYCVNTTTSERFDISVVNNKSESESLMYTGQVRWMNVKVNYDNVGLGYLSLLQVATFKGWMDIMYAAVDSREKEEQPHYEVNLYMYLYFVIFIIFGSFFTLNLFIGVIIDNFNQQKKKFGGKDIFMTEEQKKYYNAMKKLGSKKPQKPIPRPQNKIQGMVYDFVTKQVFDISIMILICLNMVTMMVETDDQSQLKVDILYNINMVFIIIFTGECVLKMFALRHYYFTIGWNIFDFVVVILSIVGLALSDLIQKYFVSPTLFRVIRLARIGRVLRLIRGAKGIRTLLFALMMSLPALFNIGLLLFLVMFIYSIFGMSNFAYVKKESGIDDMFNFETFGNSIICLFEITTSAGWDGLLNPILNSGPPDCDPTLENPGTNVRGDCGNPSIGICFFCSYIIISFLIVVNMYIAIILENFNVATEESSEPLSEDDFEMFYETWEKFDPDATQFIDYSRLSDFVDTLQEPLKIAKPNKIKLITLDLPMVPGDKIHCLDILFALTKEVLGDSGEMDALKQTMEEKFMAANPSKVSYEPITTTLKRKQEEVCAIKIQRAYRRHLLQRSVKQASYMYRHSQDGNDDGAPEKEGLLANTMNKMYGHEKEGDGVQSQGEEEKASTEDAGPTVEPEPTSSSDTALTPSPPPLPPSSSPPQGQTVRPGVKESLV
Chain of rNaV1.4 (Q00954 19-218, further chain): as the sequence (Q00954 19-218, further chain) above

On to `C[C@@H]1NC(=O)[C@H](Cc2c[nH]c3ccccc23)NC(=O)[C@H](CCCCN)NC(=O)[C@H](CCCNC(=N)N)NC(=O)[C@@H](N)CSSC[C@@H](C(N)=O)NC(=O)[C@H](CCCNC(=N)N)NC(=O)[C@H](CC(N)=O)NC(=O)[C@H](Cc2c[nH]c3ccccc23)NC(=O)[C@H](CCCNC(=N)N)NC1=O` [PnCS1[R3K], CRKWARWNRC ^*] (H-CRKWARWNRC-NH2; disulfide 1-10), for which the IC50 at rNaV1.2 is 0.8 ± 0.3 µM; at rNaV1.4 it was 0.6 ± 0.3 µM; against hNaV1.5 it was 2.7 ± 0.6 µM; at mNaV1.6, 0.8 ± 0.3 µM; on rNaV1.8 it was more than 100 µM. Also, the “Maximum % inhibition NaV1.2” value on rNaV1.2 (peptide at 100 μM, 100 µM) worked out at 96%. Also, the inhibition at 100 µM was more than 95% at rNaV1.2; 92% at rNaV1.4; 94% on hNaV1.5; 86% at mNaV1.6; 0% at rNaV1.8.

Regarding `C[C@@H]1NC(=O)[C@H](Cc2c[nH]c3ccccc23)NC(=O)[C@H](CCCNC(=N)N)NC(=O)[C@H](CCCNC(=N)N)NC(=O)[C@@H](N)CSSC[C@@H](C(=O)O)NC(=O)[C@H](CCCNC(=N)N)NC(=O)[C@H](CC(N)=O)NC(=O)[C@H](Cc2c[nH]c3ccccc23)NC(=O)[C@H](CCCNC(=N)N)NC1=O` [PnCS1DeAm, CRRWARWNRC] (H-CRRWARWNRC-OH; disulfide 1-10), the IC50 at rNaV1.2, against rNaV1.4, against hNaV1.5, at mNaV1.6 and against rNaV1.8 was more than 100 µM throughout. The inhibition at 100 µM on rNaV1.2 was found to be 34%; on rNaV1.4 it was 43%; on hNaV1.5, 10%; at mNaV1.6, 24%; at rNaV1.8 it was 0%.

As to `C[C@@H]1NC(=O)[C@H](Cc2c[nH]c3ccccc23)NC(=O)[C@H](CCCNC(=N)N)NC(=O)[C@H](CCCNC(=N)N)NC(=O)[C@@H](N)CSSC[C@@H](C(N)=O)NC(=O)[C@H](CCCNC(=N)N)NC(=O)[C@H](CC(N)=O)NC(=O)[C@H](CCC(=O)O)NC(=O)[C@H](CCCNC(=N)N)NC1=O` [PnCS1[W7E], CRRWARENRC ^*] (H-CRRWARENRC-NH2; disulfide 1-10), the 50% inhibitory concentration (IC50) at rNaV1.2, against rNaV1.4, against hNaV1.5, against mNaV1.6 and on rNaV1.8 was more than 100 µM in each case. Also, the inhibition at 100 µM is 21% at rNaV1.2; 42% at rNaV1.4; 33% at hNaV1.5; 27% on mNaV1.6; 0% on rNaV1.8.

Take `C[C@@H]1NC(=O)[C@H](Cc2c[nH]c3ccccc23)NC(=O)[C@H](CCC(=O)O)NC(=O)[C@H](CCCNC(=N)N)NC(=O)[C@@H](N)CSSC[C@@H](C(N)=O)NC(=O)[C@H](CCCNC(=N)N)NC(=O)[C@H](CC(N)=O)NC(=O)[C@H](Cc2c[nH]c3ccccc23)NC(=O)[C@H](CCCNC(=N)N)NC1=O` [PnCS1[R3E], CREWARWNRC ^*] (H-CREWARWNRC-NH2; disulfide 1-10): the half-inhibitory concentration (IC50) against rNaV1.2, at rNaV1.4, against hNaV1.5, against mNaV1.6 and at rNaV1.8 was more than 100 µM in each case. Moreover, the inhibition at 100 µM at rNaV1.2 came out at 52%; at rNaV1.4 it was 36%; at hNaV1.5 it was 21%; on mNaV1.6, 24%; at rNaV1.8 it was 0%.

Regarding `C[C@@H]1NC(=O)[C@H](Cc2c[nH]c3ccccc23)NC(=O)[C@H](CCCNC(=N)N)NC(=O)[C@H](CCC(=O)O)NC(=O)[C@@H](N)CSSC[C@@H](C(N)=O)NC(=O)[C@H](CCCNC(=N)N)NC(=O)[C@H](CC(N)=O)NC(=O)[C@H](Cc2c[nH]c3ccccc23)NC(=O)[C@H](CCCNC(=N)N)NC1=O` [PnCS1[R2E], CERWARWNRC ^*] (H-CERWARWNRC-NH2; disulfide 1-10), the IC50 against rNaV1.2, on rNaV1.4, against hNaV1.5, at mNaV1.6 and on rNaV1.8 was more than 100 µM each time. Also, the inhibition at 100 µM was found to be 41% at rNaV1.2; 11% at rNaV1.4; 27% at hNaV1.5; 5% at mNaV1.6; 0% on rNaV1.8.

Consider `C[C@@H]1NC(=O)[C@H](Cc2c[nH]c3ccccc23)NC(=O)[C@H](CCCNC(=N)N)NC(=O)[C@H](CCCNC(=N)N)NC(=O)[C@@H](N)CSSC[C@@H](C(N)=O)NC(=O)[C@H](CCCCN)NC(=O)[C@H](CC(N)=O)NC(=O)[C@H](Cc2c[nH]c3ccccc23)NC(=O)[C@H](CCCNC(=N)N)NC1=O` [PnCS1[R9K], CRRWARWNKC ^*] (H-CRRWARWNKC-NH2; disulfide 1-10), for which the IC50 on rNaV1.2 is 10.2 ± 4.3 µM; on rNaV1.4, 6.1 ± 2.1 µM; on hNaV1.5 it was 9.2 ± 0.6 µM; on mNaV1.6, 6.7 ± 0.8 µM; against rNaV1.8, more than 100 µM. Besides, the inhibition at 100 µM was 62% at rNaV1.2; 66% on rNaV1.4; 67% on hNaV1.5; 72% at mNaV1.6; 0% at rNaV1.8.

Regarding `C[C@@H]1NC(=O)[C@H](Cc2c[nH]c3ccccc23)NC(=O)[C@H](CCCNC(=N)N)NC(=O)[C@H](CCCNC(=N)N)NC(=O)[C@@H](N)CSSC[C@@H](C(N)=O)NC(=O)[C@H](CCCNC(=N)N)NC(=O)[C@H](CCC(=O)O)NC(=O)[C@H](Cc2c[nH]c3ccccc23)NC(=O)[C@H](CCCNC(=N)N)NC1=O` [PnCS1[N8E], CRRWARWERC ^*] (H-CRRWARWERC-NH2; disulfide 1-10), the IC50 at rNaV1.2, against rNaV1.4, against hNaV1.5, against mNaV1.6 and against rNaV1.8 was more than 100 µM throughout. Also, the inhibition at 100 µM at rNaV1.2 was determined as 47%; at rNaV1.4, 53%; at hNaV1.5, 44%; on mNaV1.6, 27%; on rNaV1.8, 0%.

As to `C[C@@H]1NC(=O)[C@H](Cc2c[nH]c3ccccc23)NC(=O)[C@H](CCCNC(=N)N)NC(=O)[C@H](CCCNC(=N)N)NC(=O)[C@@H](N)CSSC[C@@H](C(N)=O)NC(=O)[C@H](CCCNC(=N)N)NC(=O)[C@H](CCCCN)NC(=O)[C@H](Cc2c[nH]c3ccccc23)NC(=O)[C@H](CCCNC(=N)N)NC1=O` [PnCS1[N8K], CRRWARWKRC ^*] (H-CRRWARWKRC-NH2; disulfide 1-10), the IC50 at rNaV1.2 is 4.4 ± 0.8 µM; at rNaV1.4, 0.9 ± 0.3 µM; at hNaV1.5 it was 2.8 ± 0.5 µM; against mNaV1.6, 0.5 ± 0.2 µM; against rNaV1.8, more than 100 µM. For the same compound, the inhibition at 100 µM on rNaV1.2 was 81%; at rNaV1.4, more than 95%; at hNaV1.5, 86%; at mNaV1.6 it was 92%; at rNaV1.8 it was 0%. For the same compound, the “Maximum % inhibition NaV1.4” value on rNaV1.4 is recorded as 96%.

On to `C[C@@H]1NC(=O)[C@H](Cc2c[nH]c3ccccc23)NC(=O)[C@H](CCCNC(=N)N)NC(=O)[C@H](CCCNC(=N)N)NC(=O)[C@@H](N)CSSC[C@@H](C(N)=O)NC(=O)[C@H](CCCNC(=N)N)NC(=O)[C@H](CC(N)=O)NC(=O)[C@H](Cc2c[nH]c3ccccc23)NC(=O)[C@H](CCCCN)NC1=O` [PnCS1[R6K], CRRWAKWNRC ^*] (H-CRRWAKWNRC-NH2; disulfide 1-10), for which the IC50 on rNaV1.2 was 8.7 ± 2.4 µM; against rNaV1.4, 0.6 ± 0.4 µM; against hNaV1.5 it was 3.3 ± 1.5 µM; on mNaV1.6 it was 0.9 ± 0.3 µM; at rNaV1.8 it was more than 100 µM. Further, the inhibition at 100 µM at rNaV1.2 was 67%; on rNaV1.4 it was 94%; on hNaV1.5, 89%; at mNaV1.6, 88%; on rNaV1.8, 0%.

Regarding `C[C@@H]1NC(=O)[C@H](Cc2c[nH]c3ccccc23)NC(=O)[C@H](CCCNC(=N)N)NC(=O)[C@H](C)NC(=O)[C@@H](N)CSSC[C@@H](C(N)=O)NC(=O)[C@H](CCCNC(=N)N)NC(=O)[C@H](CC(N)=O)NC(=O)[C@H](Cc2c[nH]c3ccccc23)NC(=O)[C@H](CCCNC(=N)N)NC1=O` [PnCS1[R2A], CARWARWNRC ^*] (H-CARWARWNRC-NH2; disulfide 1-10), the IC50 at rNaV1.2 was 2.9 ± 0.5 µM; against rNaV1.4 it was 1.4 ± 0.4 µM; against hNaV1.5, 1.7 ± 0.7 µM; against mNaV1.6, 1.6 ± 0.5 µM; against rNaV1.8, more than 100 µM. Further, the inhibition at 100 µM is 84% at rNaV1.2; more than 95% at rNaV1.4; 68% at hNaV1.5; 71% on mNaV1.6; 0% at rNaV1.8. Moreover, the “Maximum % inhibition NaV1.4” value on rNaV1.4 is recorded as 96%.

As to `CC(=O)N[C@H]1CSSC[C@@H](C(=O)O)NC(=O)[C@H](CCCNC(=N)N)NC(=O)[C@H](CC(N)=O)NC(=O)[C@H](Cc2c[nH]c3ccccc23)NC(=O)[C@H](CCCNC(=N)N)NC(=O)[C@H](C)NC(=O)[C@H](Cc2c[nH]c3ccccc23)NC(=O)[C@H](CCCNC(=N)N)NC(=O)[C@H](CCCNC(=N)N)NC1=O` [PnCS1Ac, Ac-CRRWARWNRC] (Ac-CRRWARWNRC-OH; disulfide 1-10), the inhibition at 100 µM at rNaV1.2, on rNaV1.4, at hNaV1.5, on mNaV1.6 and on rNaV1.8 was 0% each time.
